Experimental data taken from patent US20080119530A1, “Method for treatment and prevention of ultraviolet light induced skin pathologies” (priority 2006, published 2008).

Experiments:
primary keratinocytes = assay: Cell cycle distribution (DNA content, flow cytometry) in cultured keratinocytes; format: cell-based, mouse
Description: (§1) Cell culture. […] Keratinocytes were transfected with Erbb2-targeted siRNA (32), Stealth RNAi Negative Control LO GC (Invitrogen, Carlsbad, Calif.), Cy3-conjugated Label IT RNAi Delivery Control (Mirus, Madison, Wis.) or sham transfection with TransIT-siQUEST Transfection Reagent (Mirus, Madison, Wis.). Plasmids with Cdc25a (Hassepass et al. 2003a) and EGFP (enhanced green fluorescent protein) cDNA were cotransfected with Lipofectamine Transfection Reagent (Invitrogen, Carlsbad, Calif.). Transfection efficiency was quantified by determining the proportion of the cells that incorporated the fluorescent Cy3-conjugated siRNA or GFP one day post-transfection. Keratinocytes homozygous for the Erbb2 loxP mutation were infected with Cre recombinase-expressing or empty adenoviral vectors in polybrene (Sigma).
Cell cycle. For in vivo analysis of cell cycle distribution, sections from paraffin embedded blocks were dewaxed with xylene, rehydrated and digested in PBS containing 0.5% pepsin (Sigma, St. Louis, Mo.). The nuclei were isolated by filtration and suspended in Vindelov's solution reagent (3.5 mM tris base, pH 7.6, 10 mM NaCl, […] Ribonuclease A, 75 μg/ml PI, 1.01l/ml IPEGAL) (56). For in vitro analysis, keratinocytes were resuspended, fixed in 70% ethanol, resuspended in Vindelov's solution (3.5 mM Tris base, pH 7.6, 10 mM NaCl, 10 μg/ml Ribonuclease A, 75 μg/ml propidium iodide, 1.01l/ml IPEGAL), and analyzed on a FACSCalibur flow cytometer (Becton Dickinson, Franklin Lakes, N.J.). Cell cycle distributions were determined using ModFit LT 3.1 software (Verity Software House, Topsham, Me.). […]
To further investigate Erbb2's effects on cell cycle progression after UV irradiation, DNA synthesis was examined after UV irradiation of cultured primary keratinocytes lacking Erbb2 activity. […] An even more striking effect was detected after UV irradiation. […] The influence of Erbb2 activation on S-phase progression was determined using both pharmacologic and genetic models to interfere with Erbb2 signaling. […]

keratin 5, loricrin = assay: Differentiation markers in UV-exposed skin; format: in vivo, mouse; conditions: inhibition prior to UV irradiation
keratinocytes = assay: Apoptosis in keratinocytes (ssDNA Apoptosis ELISA); format: cell-based, mouse
Description: as §1
Proliferation and apoptosis assays. Proliferation, survival and apoptosis were quantified in three replicate experiments. BrdU uptake was measured by a chemiluminescenit BrdU Cell Proliferation ELISA (Roche, Germany). Survival was quantified using 4-methylumbelliferyl heptanoate (MUH, Sigma, St. Louis, Mo.) degradation product fluorescence (ex: 360 nm, em:465 nm) as a marker for cell viability based on the method by Dotsika et al.^27 Cells were incubated in 100 μg/ml MUH in PBS for 30 minutes at 37° C. MUH fluorescence from wells lacking cells was subtracted from all samples. Apoptosis was measured using an ssDNA Apoptosis ELISA kit (Chemicon, Temecula, Calif.).
To investigate the role of Erbb2 in apoptosis following UV exposure, keratinocyte survival was measured in AG825-treated or Erbb2 siRNA-transfected cells and controls. As expected, apoptosis increased in all groups after UV exposure, as detected by ssDNA quantification.

mice = assay: Skin-fold thickness as a measure of UV-induced edema; format: in vivo, mouse
Description: Adult female CD-1 mice were maintained in our animal facility and provided with Purina lab chow (Nestlé Purina PetCare, St. Louis, Mo.) and water ad libitum. The dorsal skin was clipped one day before treatment and shaved with a Remington Microscreen shaver (Wahl, Sterling, II) on the day of treatment. […] UVB TL 40W/12 RS bulbs (Philips, Somerset, N.J.) were used that emitted approximately 30% UV-A, 70% UV-B and <1% UV-C, with a total output of 470 μW/cm^2, as measured with radiometric photodetector probes (Newport, Irvine, Calif.). Skin-fold thickness was measured using calipers to lightly pinch the dorsal skin. All animal procedures were approved by our Institutional Animal Care and Use Committee.

COc1cc(/C=C(\C#N)C(N)=O)cc(CSc2nc3ccccc3s2)c1O [AG825]
time at which S-phase arrest began (primary keratinocytes; after UV exposure): 18 h | S-phase arrest (primary keratinocytes; after sham UV): caused S-phase arrest | increase in the percentage of cells in S-phase (primary keratinocytes; inhibition prior to UV exposure): 10% | localization or expression of early (keratin 5) or late (loricrin) markers of differentiation (keratin 5, loricrin): did not alter | ssDNA (apoptosis), compared with DMSO-treated keratinocytes (keratinocytes; between 6 and 12 h post-UV): similarly increased | apoptosis compared to DMSO-treated cells (keratinocytes; by 24 h after UV exposure): significantly increased | apoptosis after UV in vitro (keratinocytes; extent varies with the assay): small increase | suppression of UV-induced edema (skin-fold thickness) (mice; 4 d after UV exposure): 33% | suppression of UV-induced edema (skin-fold thickness) (mice; 5 d after UV exposure): 37% | suppression of UV-induced edema (skin-fold thickness) (mice; 6 d after UV exposure): 64%
